The values that follow come from article PMC8496086 (RSC Chemical Biology, 2021).

Structures are written as SMILES.

Experiment [1] relates to human aortic endothelial cells (HAEC). As to the kind of experiment: MNA production in HAEC cells. In kind it is cell-based. As to conditions: 1 and 10 μM compound, 100 μM nicotinamide, 10 μM SAM, 3 hours.
Experiment [2] has as its system A549 lung carcinoma cells. Kind of experiment: MNA production in A549 cells. In kind it is cell-based, human. As to conditions: 1 and 10 μM compound, 100 μM nicotinamide, 10 μM SAM, 1 h.
Experiment [3] has as its system NNMT. As to conditions: read-out: reported IC50 value; cited from earlier work.

As usually defined, the IC50 is the midpoint of a concentration-inhibition curve. Regarding `CNc1ccc(C(N)=O)cn1` [Peptide 6-MANA, 6-methylamino-nicotinamide], the “effect on concentration of MNA” value in experiment [1] and in experiment [2] was “significant reduction of MNA concentration” throughout. The IC50 in experiment [3] is 588 ± 75 nM.
